The values that follow come from PMC9298070, “Lack of a Clinically Meaningful Drug Interaction Between the HIV‐1 Antiretroviral Agents Islatravir, Dolutegravir, and Tenofovir Disoproxil Fumarate” (Clinical Pharmacology in Drug Development, 2021).

Data set [1] has as its system uridine diphosphate glucuronosyltransferase 1A1. The arrangement: method as in PMID 34452431. The conditions noted are these: at concentrations up to 100 μM; cited from earlier work.
In a further data set the test system is CYP1A2. Set-up: method as in PMID 34452431. The conditions noted are these: at concentrations up to 100 μM; cited from earlier work.
The next data set has as its system CYP3A4. Set-up: method as in PMID 34452431. As to conditions: up to 200 μM; cited from earlier work.
Details of data set [2]: method as in PMID 34452431. As to conditions: cited from earlier work.
Data set [3] can be described thus: Safety and tolerability in the phase 1 trial (adverse event reports, laboratory tests, ECG, vital signs). It is filed as in vivo, human. The conditions noted are these: for participants reporting AEs considered drug-related: of 12 participants; for tolerability: adults without HIV, N = 12. The method, then:
This was a phase 1, open‐label, fixed‐sequence, 2‐period trial in adults without HIV (protocol MK‐8591‐005). In period 1, participants received a single oral dose of 20 mg islatravir. In period 2, participants received multiple oral doses of 50 mg dolutegravir and 300 mg TDF once daily for 11 consecutive days (days 1‐11), with a single oral dose of 20 mg islatravir coadministered on day 8. There was a washout period of ≥7 days between islatravir dosing in period 1 and the first dose of dolutegravir and TDF in period 2 (Figure 1).
Safety and tolerability were monitored by repeated clinical and laboratory evaluations for the duration of the trial. Safety evaluations included adverse event (AE) reports, laboratory tests, 12‐lead electrocardiograms, and vital signs.
Incidence of adverse experiences was descriptively summarized.

A further data set concerns CYP2B6. The arrangement: method as in PMID 34452431. The conditions noted are these: at concentrations up to 100 μM; cited from earlier work.
The test system of another data set is CYP2C8. The arrangement: method as in PMID 34452431. As to conditions: at concentrations up to 100 μM; cited from earlier work.
The next data set has as its system CYP2D6. Set-up: method as in PMID 34452431. As to conditions: at concentrations up to 100 μM; cited from earlier work.
Data set [4] deals with HIV‐1. Set-up: method as in PMID 31911147. The conditions noted are these: single oral dose as low as 0.5 mg, treatment-naive adults with HIV-1; cited from earlier work.
Data set [5] deals with drug transporters, pumps, transfer proteins, extrusion proteins, or resistance proteins. As to conditions: cited from earlier work.
On the set-up of data set [6]: method as in ref 14, 15 = [14]; 14 Rudd D , Cao Y , Vaddady P , et al. Modeling‐supported islatravir dose selection for phase 3 . Poster presented at Conference on Retroviruses and Opportunistic Infections (CROI); March 8–10 , 2020 || [15]; 15 Matthews RP , Rudd JD , Levine V , et al. Multiple daily doses of MK‐8591 as low as 0.25 mg are expected to suppress HIV . Oral presentation at Conference on Retroviruses and Opportunistic Infectio. The conditions noted are these: single oral doses of islatravir, adults without HIV; cited from earlier work.

A further data set concerns CYP2C19. Set-up: method as in PMID 34452431. As to conditions: at concentrations up to 100 μM; cited from earlier work.
The subject of a further data set is CYP2C9. The arrangement: method as in PMID 34452431. As to conditions: at concentrations up to 100 μM; cited from earlier work.
The test system of data set [7] is HIV‐1. The arrangement: method as in ref 17 = [17]; 17 Molina JM , Yazdanpanah Y , Afani Saud A , et al. MK‐8591 at doses of 0.25 to 2.25 mg QD, in combination with doravirine establishes and maintains viral suppression through 48 weeks in treatment‐na. As to conditions: islatravir in combination with doravirine, treatment-naive adults with HIV-1, phase 2b; cited from earlier work.

As for `C#C[C@]1(CO)O[C@@H](n2cnc3c(N)nc(F)nc32)C[C@@H]1O` [Islatravir, 4′‐Ethynyl‐2‐fluoro‐2′‐deoxyadenosine], in data set [1], the “inhibitory effects on uridine diphosphate glucuronosyltransferase 1A1” value is “No inhibitory effects”. The “inhibitory effect on CYP1A2” value with CYP1A2 is on record as “no inhibitory effect”. Further, the “inhibitory effect on CYP3A4” value in the data set on CYP3A4 is reported as “no inhibitory effect”. In addition, in data set [2], the plasma protein binding result is on record as “low”. For the same molecule, the “participants reporting AEs considered drug-related” value came to 3 participants in data set [3] (after administration of islatravir) and 1 participant in data set [3] (after coadministration of all 3 therapies (islatravir, dolutegravir, TDF)). In addition, the tolerability result is “generally well tolerated” in [3] (islatravir alone, single oral 20 mg); “generally well tolerated” in data set [3] (islatravir in combination with dolutegravir and TDF). Also, the “inhibitory effect on CYP2B6” value in the data set with CYP2B6 is “no inhibitory effect”. The “inhibitory effect on CYP2C8” value with CYP2C8 was “no inhibitory effect”. Moreover, in the data set with CYP2D6, the “inhibitory effect on CYP2D6” value is reported as “no inhibitory effect”. Also, in the data set with HIV‐1 [4], the “duration of effective viral suppression” value is “up to 7 days”. In data set [5], the “interference with drug transporters, pumps, transfer proteins, extrusion proteins, or resistance proteins” value is on record as “not found to interfere”. Further, the “time to peak plasma concentrations” value in [6] was “≈ 0.5 hours”. The “inhibitory effect on CYP2C19” value in the data set with CYP2C19 is reported as “no inhibitory effect”. Moreover, in the data set on CYP2C9, the “inhibitory effect on CYP2C9” value was “no inhibitory effect”. Moreover, in the data set on HIV‐1 [7], the “duration of maintained virologic suppression” value is recorded as “up to 48 weeks”.
